Where two headings read alike, the source gives them in different places.
How the values were obtained:
Digitaria sanguinalis = experiment: Herbicidal activity, pre-emergence pot test, Digitaria sanguinalis; type: in vivo; details: 150 g a.i./mu, 15 to 25 days after treatment
Source text: (§1) Bioassay method: (1) Plastic pots (about 64 cm^2) were filled with soil and placed in a stainless steel basin, seeds with the same size and plumpness of monocotyledonous weeds such as Digitaria sanguinalis, Echinochloa crus-galli, Setaria viridis and Dicotyledonous weeds such as Abutilon theophrasti or Stelleria media or Solanum nigrum, Chenopodium album, Amaranthus ascedene or Amaranthus retroflexus were sown in one-third of the pot area with the soil depth of 1 cm in two different pots separately and grown to the desired leaf stage in a greenhouse wherein water is added to the stainless steel basin until the full infiltration of soils from the bottom of pots; (2) Test compounds represented by the general formula (I) were formulated by using N,N-dimethylformamide as solvent and a small amount of Tween 80 as emulsification agent, then diluted to the required test concentrations with water, using the control group tested with corresponding solvent and water only; (3) the required test solutions were applied for pre-emergence treatment 24 hr after the weeds were sown, for postemergence treatment, monocotyledonous weeds were treated at the 1-leaf stage and dicotyledonous weeds were treated at 2 leaf stage; (4) the pre- and postemergence application rates were 150 g a.i./mu, using the control group with corresponding solvent or water respectively; (5) Treatments were kept in greenhouse for cultivation; (6) Herbicidal activities were evaluated visually 15 to 25 days after treatment, on the basis of the survey results, the weed control effect can be calculated by the following formula: efficacy (%)=(the height of the weed in the control group−the height of the weed in the test group) (the height of the weed in the control group).

Setaria viridis = experiment: Herbicidal activity, pre-emergence pot test, Setaria viridis; type: in vivo; details: 150 g a.i./mu, 15 to 25 days after treatment
Source text: as §1

Abutilon = experiment: Herbicidal activity, pre-emergence pot test, Abutilon; type: in vivo, Abutilon theophrasti; details: 150 g a.i./mu, 15 to 25 days after treatment
Source text: as §1

Amaranthus spinosus = experiment: Herbicidal activity, pre-emergence pot test, Amaranthus spinosus; type: in vivo; details: 150 g a.i./mu, 15 to 25 days after treatment
Source text: as §1

Chenopodium album = experiment: Herbicidal activity, pre-emergence pot test, Chenopodium album; type: in vivo; details: 150 g a.i./mu, 15 to 25 days after treatment
Source text: as §1

Echinochloa crus-galli = experiment: Herbicidal activity, pre-emergence pot test, Echinochloa crus-galli; type: in vivo; details: 150 g a.i./mu, 15 to 25 days after treatment
Source text: as §1

Fusarium oxysporum = experiment: Fungicidal activity against Fusarium oxysporum; type: cell-based; details: 25 mg/L
Procedure: (§2) Bioassay method: Stock solution of every test compound was prepared in an appropriate solvent such as N,N-dimethylformamide (DMF), and then diluted to the required test concentrations with sterile water containing 0.1% Tween 80; Pipetted 3 mL of test solution to 27 mL of potato dextrose agar (PDA) medium at 45° C. and poured into a Petri dish to prepare a plate after shaking thoroughly; 6 mm of diameter of fungi cake from the edge of 7-day-old […] colony was inoculated on the central of the plate, wherein mycelium facing down, and cultured in the culture tank at 28° C. The diameter of fungi spread was calculated 4 days later using the control group tested with the diluent only. Test was run 4 times. Data were subjected to EXCEL statistical software analysis and the growth inhibition of the tested compound was calculated according to the corresponding control, the activity was rated on the basis of percentage of growth inhibition using the following rating system: A, inhibition (%)>90; B, 90≧inhibition (%)>70; C, 70≧inhibition (%)>50; D, inhibition (%)≦50.

Alternaria solani = experiment: Fungicidal activity against Alternaria solani; type: cell-based; details: 25 mg/L
Procedure: as §2

Cercospora arachidicola = experiment: Fungicidal activity against Cercospora arachidicola; type: cell-based; details: 25 mg/L
Procedure: as §2

Marssonina coronaria = experiment: Fungicidal activity against Marssonina coronaria; type: cell-based; details: 25 mg/L
Procedure: as §2

Botrytis cinerea = experiment: Fungicidal activity against Botrytis cinerea, mycelial growth inhibition on PDA plate; type: cell-based
Procedure: as §2
Fungicidal activities against Botrytis cinerea of compounds represented by the general formula (I) were evaluated with the corresponding method in Example 18, and some of the test results are shown in Table 6 to Table 8.

Sphaceloma ampelinum = experiment: Fungicidal activity against Sphaceloma ampelinum; type: cell-based; details: 25 mg/L
Procedure: as §2

Sclerotinia sclerotiorum = experiment: Fungicidal activity against Sclerotinia sclerotiorum, mycelial growth inhibition on PDA plate; type: cell-based
Procedure: as §2

Alternaria mali = experiment: Fungicidal activity against Alternaria mali; type: cell-based; details: 25 mg/L
Procedure: as §2

Tetranychus urticae = experiment: Acaricidal activity against Tetranychus urticae, dipping of horsebean seedlings; type: in vivo
Procedure: Bioassay method: Stock solution of every test compound was prepared in an appropriate solvent such as N,N-dimethylformamide, and a small amount of Tween 80 was added as emulsification agent, then diluted to the required test concentrations with distilled water, using the control group tested with distilled water only. 100 to 200 adults of Tetranychus urticae were transferred to well-growing horsebean seedlings and 24 hr later, horsebean seedlings with Tetranychus urticae were dipped in the test solution for 10 s, then allowed to dry with filter paper and transplanted to the beaker containing water and kept in a room for normal cultivation. Each assay contained three replications, and results were averaged. Mortality was assessed 24 hr after the treatment. The activity was rated on the basis of mortality using the following rating system: A, mortality>90; B, 90≧mortality>70; C, 70≧mortality>50; D, mortality≦50.

Alternaria alternata = experiment: Fungicidal activity against Alternaria alternata, mycelial growth inhibition on PDA plate; type: cell-based; details: Alternaria alternata; 25 mg/L; read-out: activities against Alternaria alternata (growth inhibition rating)
Procedure: as §2
Fungicidal activities against Alternaria alternata of compounds represented by the general formula (I) were evaluated with the corresponding method in Example 18, and some of the test results are shown in Table 9 to Table 10.

CNc1ccc([N+](=O)[O-])c(N(C)Cc2cnc(Cl)s2)n1 [Compound 20]
herbicidal activity (efficacy), Digitaria sanguinalis (Digitaria sanguinalis): 70%
herbicidal activity (efficacy), Setaria viridis (Setaria viridis): 70%
herbicidal activity (efficacy), Abutilon (Abutilon): 70%
herbicidal activity (efficacy), Amaranthus spinosus (Amaranthus spinosus): 90%
herbicidal activity (efficacy), Chenopodium album (Chenopodium album): 90%
herbicidal activity (efficacy), Echinochloa crus-galli (Echinochloa crus-galli): 70%

CC12CC1(C)C(=O)N(c1cc(Cl)cc(Cl)c1)C2=O (stereo not shown) [Procymidone, reference compound]
activity against Fusarium oxysporum (Fusarium oxysporum): 38%
activity against Alternaria solani (Alternaria solani): 94%
activity against Cercospora arachidicola (Cercospora arachidicola): 85%
activity against Marssonina coronaria (Marssonina coronaria): 75%
inhibition at 0.1562 µg/mL (Botrytis cinerea; Botrytis cinerea, 0.1562 mg/L, Table 8, read-out: activities against Botrytis cinerea (growth inhibition)): 46%
inhibition at 0.3125 µg/mL (Botrytis cinerea; Botrytis cinerea, 0.3125 mg/L, Table 8, read-out: activities against Botrytis cinerea (growth inhibition)): 67%
inhibition at 0.625 µg/mL (Botrytis cinerea; Botrytis cinerea, 0.625 mg/L, Table 8, read-out: activities against Botrytis cinerea (growth inhibition)): 75%
inhibition at 1.255 µg/mL (Botrytis cinerea; Botrytis cinerea, 1.255 mg/L, Table 8, read-out: activities against Botrytis cinerea (growth inhibition)): 83%
inhibition at 2.5 µg/mL (Botrytis cinerea; Botrytis cinerea, 2.5 mg/L, Table 8, read-out: activities against Botrytis cinerea (growth inhibition)): 93%
inhibition at 5 µg/mL (Botrytis cinerea; Botrytis cinerea, 5 mg/L, Table 8, read-out: activities against Botrytis cinerea (growth inhibition)): 100%
activity against Sphaceloma ampelinum (Sphaceloma ampelinum): 96%
inhibition at 0.1562 µg/mL (Sclerotinia sclerotiorum; Sclerotinia sclerotiorum, 0.1562 mg/L, Table 5, read-out: activities against Sclerotinia sclerotiorum (growth inhibition)): 34%
inhibition at 0.3125 µg/mL (Sclerotinia sclerotiorum; Sclerotinia sclerotiorum, 0.3125 mg/L, Table 5, read-out: activities against Sclerotinia sclerotiorum (growth inhibition)): 63%
inhibition at 0.625 µg/mL (Sclerotinia sclerotiorum; Sclerotinia sclerotiorum, 0.625 mg/L, Table 5, read-out: activities against Sclerotinia sclerotiorum (growth inhibition)): 66%
inhibition at 1.255 µg/mL (Sclerotinia sclerotiorum; Sclerotinia sclerotiorum, 1.255 mg/L, Table 5, read-out: activities against Sclerotinia sclerotiorum (growth inhibition)): 76%
inhibition at 2.5 µg/mL (Sclerotinia sclerotiorum; Sclerotinia sclerotiorum, 2.5 mg/L, Table 5, read-out: activities against Sclerotinia sclerotiorum (growth inhibition)): 79%
inhibition at 5 µg/mL (Sclerotinia sclerotiorum; Sclerotinia sclerotiorum, 5 mg/L, Table 5, read-out: activities against Sclerotinia sclerotiorum (growth inhibition)): 93%
activity against Alternaria mali (Alternaria mali): 82%

CN(C)c1ccc([N+](=O)[O-])c(N(C)Cc2cnc(Cl)s2)n1 [Compound 23]
herbicidal activity (efficacy), Digitaria sanguinalis (Digitaria sanguinalis): 0%
herbicidal activity (efficacy), Setaria viridis (Setaria viridis): 0%
activities against Botrytis cinerea (growth inhibition rating) (Botrytis cinerea; 25 mg/L): B (B, 90≧inhibition (%)>70)
herbicidal activity (efficacy), Abutilon (Abutilon): 70%
herbicidal activity (efficacy), Amaranthus spinosus (Amaranthus spinosus): 80%
herbicidal activity (efficacy), Chenopodium album (Chenopodium album): 80%
herbicidal activity (efficacy), Echinochloa crus-galli (Echinochloa crus-galli): 0%

CCN(Cc1cnc(Cl)s1)c1nc(SC)ccc1[N+](=O)[O-] [Compound 18]
herbicidal activity (efficacy), Digitaria sanguinalis (Digitaria sanguinalis): 90%
herbicidal activity (efficacy), Setaria viridis (Setaria viridis): 80%
activities against Botrytis cinerea (growth inhibition rating) (Botrytis cinerea; 25 mg/L): B (B, 90≧inhibition (%)>70)
herbicidal activity (efficacy), Abutilon (Abutilon): 0%
herbicidal activity (efficacy), Amaranthus spinosus (Amaranthus spinosus): 0%
herbicidal activity (efficacy), Chenopodium album (Chenopodium album): 0%
herbicidal activity (efficacy), Echinochloa crus-galli (Echinochloa crus-galli): 80%

C=CCOc1ccc([N+](=O)[O-])c(N(CC)Cc2cnc(Cl)s2)n1 [Compound 29, 6-allyloxy-N-((2-chlorothiazole-5-yl)methyl)-N-ethyl-nitropyridine-2-amine]
activities against Botrytis cinerea (growth inhibition) (Botrytis cinerea; 1.25 mg/L, Table 7): 62%
activities against Botrytis cinerea (growth inhibition) (Botrytis cinerea; 2.5 mg/L, Table 7): 67%
activities against Botrytis cinerea (growth inhibition) (Botrytis cinerea; 5 mg/L, Table 7): 73%
activities against Botrytis cinerea (growth inhibition) (Botrytis cinerea; 10 mg/L, Table 7): 80%
activities against Botrytis cinerea (growth inhibition rating) (Botrytis cinerea; 25 mg/L): A (A, inhibition (%)>90)
activities against Tetranychus urticae (mortality rating) (Tetranychus urticae; 500 mg/L, mortality 24 hr after the treatment): C (C, 70≧mortality>50)
activities against Sclerotinia sclerotiorum (growth inhibition) (Sclerotinia sclerotiorum; 1.25 mg/L, Table 4): 63%
activities against Sclerotinia sclerotiorum (growth inhibition) (Sclerotinia sclerotiorum; 2.5 mg/L, Table 4): 72%
activities against Sclerotinia sclerotiorum (growth inhibition) (Sclerotinia sclerotiorum; 5 mg/L, Table 4): 79%
activities against Sclerotinia sclerotiorum (growth inhibition) (Sclerotinia sclerotiorum; 10 mg/L, Table 4): 83%
activities against Sclerotinia sclerotiorum (growth inhibition rating) (Sclerotinia sclerotiorum; 25 mg/L): A (A, inhibition (%)>90)

C#CCOc1ccc([N+](=O)[O-])c(N(CC)Cc2cnc(Cl)s2)n1 [Compound 25, 6-propargyloxy-N-((2-chlorothiazole-5-yl)methyl)-N-ethyl-3-nitropyridine-2-amine]
inhibition at 1.25 µg/mL (Botrytis cinerea; Botrytis cinerea, 1.25 mg/L, Table 7, read-out: activities against Botrytis cinerea (growth inhibition)): 85%
inhibition at 2.5 µg/mL (Botrytis cinerea; Botrytis cinerea, 2.5 mg/L, Table 7, read-out: activities against Botrytis cinerea (growth inhibition)): 90%
inhibition at 5 µg/mL (Botrytis cinerea; Botrytis cinerea, 5 mg/L, Table 7, read-out: activities against Botrytis cinerea (growth inhibition)): 93%
inhibition at 10 µg/mL (Botrytis cinerea; Botrytis cinerea, 10 mg/L, Table 7, read-out: activities against Botrytis cinerea (growth inhibition)): 97%
inhibition at 25 µg/mL (Botrytis cinerea; Botrytis cinerea, 25 mg/L, read-out: activities against Botrytis cinerea (growth inhibition rating)): > 90%
mortality at 500 µg/mL (Tetranychus urticae; Tetranychus urticae, 24 h, read-out: activities against Tetranychus urticae (mortality rating)): 50 to 70%
inhibition at 25 µg/mL (Alternaria alternata): 70 to 90%
inhibition at 1.25 µg/mL (Sclerotinia sclerotiorum; Sclerotinia sclerotiorum, 1.25 mg/L, Table 4, read-out: activities against Sclerotinia sclerotiorum (growth inhibition)): 78%
inhibition at 2.5 µg/mL (Sclerotinia sclerotiorum; Sclerotinia sclerotiorum, 2.5 mg/L, Table 4, read-out: activities against Sclerotinia sclerotiorum (growth inhibition)): 84%
inhibition at 5 µg/mL (Sclerotinia sclerotiorum; Sclerotinia sclerotiorum, 5 mg/L, Table 4, read-out: activities against Sclerotinia sclerotiorum (growth inhibition)): 90%
inhibition at 10 µg/mL (Sclerotinia sclerotiorum; Sclerotinia sclerotiorum, 10 mg/L, Table 4, read-out: activities against Sclerotinia sclerotiorum (growth inhibition)): 96%
inhibition at 25 µg/mL (Sclerotinia sclerotiorum; Sclerotinia sclerotiorum, 25 mg/L, read-out: activities against Sclerotinia sclerotiorum (growth inhibition rating)): > 90%
